Reference: patent US9856264B2, “Isoquinolinesulfonyl derivative as RHO kinase inhibitor” (MEDSHINE DISCOVERY INC., priority 2014, dated 2018)

Molecular target: ROCK kinase
Assay: In vitro ROCK kinase inhibition activity evaluation (33P-ATP filter-binding)
Assay type: biochemical
Set-up: key to ROCK inhibition activity: 1 μM ≦ + < 5 μM; 0.1 μM ≦ ++ < 1 μM; +++ < 0.1 μM; −− N/A
Details: 1 nM ROCK kinase, 20 μM Long S6 Kinase substrate peptide, 2 h room temperature
Description: Biological Activity Experiment: In Vitro ROCK Kinase Inhibition Activity Evaluation
Experimental Objective: Test ROCK Inhibition IC50 Value of Invented Compounds
Buffer solution: 20 mM Hepes (pH 7.5), 10 mM MgCl2, 1 mM EGTA, 0.02% Brij35, 0.02 mg/ml BSA, 0.1 mM Na3VO4, 2 mM DTT, 1% DMSO
To a freshly prepared buffer solution was added ROCK substrate Long S6 Kinase substrate peptide, with concentration at 20 μM. 1 nM ROCK kinase was then added, and well stirred. A series of DMSO solution (starting from 10 μM, dilution factor 3) of testing article was added using Echo550. The mixture was incubated for 20 min at room temperature, then was added ^33P-ATP (radioactive intensity 10 μCi/μL) to initiate reaction and further reacted for 2 h at room temperature. The mixture was filtered through P81 ion exchange paper (Whatman #3698-915), and washed by 0.75% phosphoric acid. The intensity of radiation was measured by Filter-Binding method.
The inhibition activity of the testing articles were measured by comparing the residue kinase activity to blank substrate (pure DMSO). Using Prism software ((GraphPad Software, San Diego Calif., USA) to calculate IC50 and curve.

| ROCK inhibition activity | SMILES | IC50 |
| --- | --- | --- |
|  | O=S(=O)(c1cccc2cnccc12)N1CC[C@@H]2NCC[C@@H]21 (stereo in doubt) [Example 1, 5-((hexahydropyrrolo[3,2-b]pyrrol-1(2H)-yl)sulfonyl)isoquinoline] | 0.1 to 1 µM |
|  | O=S(=O)(c1cccc2cnccc12)N1C[C@@H]2CCN[C@@H]2C1 (stereo in doubt) [Example 2, 5-((hexahydropyrrolo[3,4-b]pyrrol-5(1H)-yl)sulfonyl)isoquinoline] | 0.1 to 1 µM |
|  | O=S(=O)(c1cccc2cnccc12)N1C[C@H]2CCCN[C@H]2C1 (stereo in doubt) [Example 3, 5-((hexahydro-1H-pyrrolo[3,4-b]pyridin-6(2H)-yl)sulfonyl)isoquinoline] | 0.1 to 1 µM |
|  | O=S(=O)(c1cccc2cncc(Cl)c12)N1CC[C@@H]2NCC[C@@H]21 (stereo in doubt) [Example 16, 4-chloro-5-((hexahydropyrrolo[3,2-b]pyrrol-1(2H)-yl)sulfonyl)isoquinoline] | 0.1 to 1 µM |
|  | O=S(=O)(c1cccc2cncc(Cl)c12)N1C[C@@H]2CCN[C@@H]2C1 (stereo in doubt) [Example 17, 4-chloro-5-((hexahydropyrrolo[3,4-b]pyrrol-5 (1H)-yl)sulfonyl)isoquinoline] | 0.1 to 1 µM |
|  | O=S(=O)(c1cccc2cncc(Cl)c12)N1C[C@H]2CCCN[C@H]2C1 (stereo in doubt) [Example 18, 4-chloro-5-((hexahydro-1H-pyrrolo[3,4-b]pyridin-6(2H)-yl)sulfonyl)isoquinoline] | 0.1 to 1 µM |
|  | O=S(=O)(c1cccc2cncc(Cl)c12)N1C[C@H]2CN[C@H]2C1 (stereo in doubt) [Example 19, 5-(3,6-diazabicyclo[3.2.0]heptan-3-ylsulfonyl)-4-chloroisoquinoline] | < 0.1 µM |
|  | O=S(=O)(c1cccc2cncc(F)c12)N1CC[C@@H]2NCC[C@@H]21 (stereo in doubt) [Example 24, 4-fluoro-5-((hexahydropyrrolo[3,2-b]pyrrol-1(2H)-yl)sulfonyl)isoquinoline] | 1 to 5 µM |
|  | O=S(=O)(c1cccc2cncc(F)c12)N1C[C@H]2CCCN[C@H]2C1 (stereo in doubt) [Example 26, 4-fluoro-5-((hexahydro-1H-pyrrolo[3,4-b]pyridin-6(2H)-yl)sulfonyl)isoquinoline] | 0.1 to 1 µM |
|  | O=S(=O)(c1cccc2cncc(F)c12)N1C[C@H]2CN[C@H]2C1 (stereo in doubt) [Example 27, 5-(3,6-diazabicyclo[3.2.0]heptan-3-ylsulfonyl)-4-fluoroisoquinoline] | 0.1 to 1 µM |
| −− | O=S(=O)(c1cccc2cncc(C(F)F)c12)N1C[C@H]2CCCN[C@H]2C1 (stereo in doubt) [Example 33, 4-(difluoromethyl)-5-((hexahydro-1H-pyrrolo[3,4-b]pyridin-6(2H)-yl)sulfonyl)isoquinoline] |  |
|  | Cc1cncc2cccc(S(=O)(=O)N3CC[C@@H]4NCC[C@@H]43)c12 (stereo in doubt) [Example 37, 5-((hexahydropyrrolo[3,2-b]pyrrol-1(2H)-yl)sulfonyl)-4-methylisoquinoline] | 0.1 to 1 µM |
|  | Cc1cnc(O)c2cccc(S(=O)(=O)N3C[C@@H]4CCN[C@@H]4C3)c12 (stereo in doubt) [Example 39, 5-((hexahydropyrrolo[3,4-b]pyrrol-5(1H)-yl)sulfonyl)-4-methylisoquinolin-1-ol] | 0.1 to 1 µM |
|  | Cc1cncc2cccc(S(=O)(=O)N3C[C@H]4CCCN[C@H]4C3)c12 (stereo in doubt) [Example 40, 5-((hexahydro-1H-pyrrolo[3,4-b]pyridin-6(2H)-yl)sulfonyl)-4-methylisoquinoline] | < 0.1 µM |
|  | Cc1cncc2cccc(S(=O)(=O)N3C[C@H]4CN[C@H]4C3)c12 (stereo in doubt) [Example 41, 5-(3,6-diazabicyclo[3.2.0]heptan-3-ylsulfonyl)-4-methylisoquinoline] | < 0.1 µM |
| −− | O=S(=O)(c1cccc2cncc(C(F)(F)F)c12)N1C[C@@H]2CCN[C@@H]2C1 (stereo in doubt) [Example 46, 5-((hexahydropyrrolo[3,4-b]pyrrol-5 (1H)-yl)sulfonyl)-4-(trifluoromethyl)isoquinoline] |  |
|  | COc1cncc2cccc(S(=O)(=O)N3CC[C@@H]4NCC[C@@H]43)c12 (stereo in doubt) [Example 47, 5-((hexahydropyrrolo[3,2-b]pyrrol-1(2H)-yl)sulfonyl)-4-methoxyisoquinoline] | 1 to 5 µM |
|  | COc1cncc2cccc(S(=O)(=O)N3C[C@@H]4CCN[C@@H]4C3)c12 (stereo in doubt) [Example 48, 5-((hexahydropyrrolo[3,4-b]pyrrol-5 (1H)-yl)sulfonyl)-4-methoxyisoquinoline] | 1 to 5 µM |

| ROCK inhibition activity | SMILES | IC50 |
| --- | --- | --- |
|  | COc1cncc2cccc(S(=O)(=O)N3C[C@H]4CCCN[C@H]4C3)c12 (stereo in doubt) [Example 49, 5-((hexahydro-1H-pyrrolo[3,4-b]pyridin-6(2H)-yl)sulfonyl)-4-methoxyisoquinoline] | 1 to 5 µM |
|  | COc1cncc2cccc(S(=O)(=O)N3C[C@H]4CN[C@H]4C3)c12 (stereo in doubt) [Example 50, 5-(3,6-diazabicyclo[3.2.0]heptan-3-ylsulfonyl)-4-methoxyisoquinoline] | 1 to 5 µM |
|  | O=S(=O)(c1cccc2cnccc12)N1CCC2NCCCC2C1 (stereo not drawn) [Example 5, 6-(isoquinolin-5-ylsulfonyl)decahydro-1,6-naphthyridine] | 0.1 to 1 µM |
|  | O=S(=O)(c1cccc2cnccc12)N1CCC2NCCCC21 (stereo not drawn) [Example 6, 5-((octahydro-1H-pyrrolo[3,2-b]pyridin-1-yl)sulfonyl)isoquinoline] | 0.1 to 1 µM |
|  | O=S(=O)(c1cccc2cnccc12)N1C[C@H]2CNC[C@H]2C1 [Example 7, 5-((hexahydropyrrolo[3,4-c]pyrrol-2(1H)-yl)sulfonyl)isoquinoline] | 0.1 to 1 µM |
|  | O=S(=O)(c1cccc2cnccc12)N1CC2CCNCC2C1 (stereo not drawn) [Example 8, 5-((hexahydro-1H-pyrrolo[3,4-c]pyridin-2(3H)-yl)sulfonyl)isoquinoline] | 0.1 to 1 µM |
|  | O=S(=O)(c1cccc2cnccc12)N1CCC2CCNC2C1 (stereo not drawn) [Example 9, 5-((hexahydro-1H-pyrrolo[2,3-c]pyridin-6(2H)-yl)sulfonyl) isoquinoline] | 1 to 5 µM |
| −− | NC1CN(S(=O)(=O)c2cccc3cnccc23)CC12CC2 (stereo not drawn) [Example 10, 5-(isoquinolin-5-ylsulfonyl)-5-azaspiro[2.4]heptan-7-amine] |  |
| −− | CCNC1CN(S(=O)(=O)c2cccc3cnccc23)CC12CC2 (stereo not drawn) [Example 11, N-ethyl-5-(isoquinolin-5-ylsulfonyl)-5-azaspiro[2.4]heptan-7-amine] |  |
|  | NC1CCN(S(=O)(=O)c2cccc3cnccc23)C12CC2 (stereo not drawn) [Example 13, 4-(isoquinolin-5-ylsulfonyl)-4-azaspiro[2.4]heptan-7-amine] | < 0.1 µM |
|  | O=S(=O)(c1cccc2cnccc12)N1CCC2NCCCCC21 (stereo not drawn) [Example 14, 1-(isoquinolin-5-ylsulfonyl)decahydropyrrolo[3,2-b]azepine] | 0.1 to 1 µM |
|  | O=S(=O)(c1cccc2cnccc12)N1CCC2CNCC2C1 (stereo not drawn) [Example 15, 5-((hexahydro-1H-pyrrolo[3,4-c]pyridin-5(6H)-yl)sulfonyl)isoquinoline] | 0.1 to 1 µM |
|  | O=S(=O)(c1cccc2cncc(Cl)c12)N1CCC2NCCCC2C1 (stereo not drawn) [Example 20, 6-((4-chloroisoquinolin-5-yl)sulfonyl)decahydro-1,6-naphthyridine] | 0.1 to 1 µM |
|  | O=S(=O)(c1cccc2cncc(Cl)c12)N1CCC2NCCCC21 (stereo not drawn) [Example 21, 4-chloro-5-((octahydro-1H-pyrrolo[3,2-b]pyridin-1-yl)sulfonyl)isoquinoline] | 0.1 to 1 µM |
|  | O=S(=O)(c1cccc2cncc(Cl)c12)N1C[C@H]2CNC[C@H]2C1 [Example 22, 4-chloro-5-((hexahydropyrrolo[3,4-c]pyrrol-2(1H)-yl)sulfonyl)isoquinoline] | 0.1 to 1 µM |
|  | O=S(=O)(c1cccc2cncc(Cl)c12)N1CC2CCNCC2C1 (stereo not drawn) [Example 23, 4-chloro-5-((hexahydro-1H-pyrrolo[3,4-c]pyridin-2(3H)-yl)sulfonyl)isoquinoline] | 0.1 to 1 µM |
|  | O=S(=O)(c1cccc2cncc(F)c12)N1C[C@@H]2CCN[C@@H]2C1 [Example 25, 4-fluoro-5-((hexahydropyrrolo[3,4-b]pyrrol-5(1H)-yl)sulfonyl)isoquinoline] | 0.1 to 1 µM |
|  | O=S(=O)(c1cccc2cncc(F)c12)N1CCC2NCCCC21 (stereo not drawn) [Example 28, 4-fluoro-5-((octahydro-1H-pyrrolo[3,2-b]pyridin-1-yl)sulfonyl)isoquinoline] | 0.1 to 1 µM |

| SMILES | ROCK inhibition activity | IC50 |
| --- | --- | --- |
| O=S(=O)(c1cccc2cncc(C(F)F)c12)N1CC[C@@H]2NCC[C@@H]21 (stereo in doubt) [Example 31, 4-(difluoromethyl)-5-((hexahydropyrrolo[3,2-b]pyrrol-1(2H)-yl)sulfonyl)isoquinoline] | −− |  |
| O=S(=O)(c1cccc2cncc(C(F)F)c12)N1C[C@@H]2CCN[C@@H]2C1 (stereo in doubt) [Example 32, 4-(difluoromethyl)-5-((hexahydropyrrolo[3,4-b]pyrrol-5(1H)-yl)sulfonyl)isoquinoline] | −− |  |
| O=S(=O)(c1cccc2cncc(C(F)F)c12)N1C[C@H]2CN[C@H]2C1 (stereo in doubt) [Example 34, 5-(3,6-diazabicyclo[3.2.0]heptan-3-ylsulfonyl)-4-(difluoromethyl)isoquinoline] | −− |  |
